Assay results reported in PubChem BioAssay (NCI).
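Exposure lasted 48 hours, with cells grown in 96-well plates and compounds tested at five concentrations. GI50: concentration for 50% inhibition of growth. TGI is the concentration that stops growth completely.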

How the values were obtained:
Test in all cases: NCI tumour cell line growth inhibition, 48 h
A498 renal = system: A498 renal
A549 NSCLC = system: A549 NSCLC
ACHN renal = system: ACHN renal
BT-549 breast = system: BT-549 breast
CAKI-1 renal = system: CAKI-1 renal
CCRF-CEM leukemia = system: CCRF-CEM leukemia
COLO 205 colon = system: COLO 205 colon
DU-145 prostate = system: DU-145 prostate
EKVX NSCLC = system: EKVX NSCLC
HCC-2998 colon = system: HCC-2998 colon
HCT-116 colon = system: HCT-116 colon
HCT-15 colon = system: HCT-15 colon
HL-60(TB) leukemia = system: HL-60(TB) leukemia
HOP-62 NSCLC = system: HOP-62 NSCLC
HOP-92 NSCLC = system: HOP-92 NSCLC
HS 578T breast = system: HS 578T breast
HT29 colon = system: HT29 colon
IGROV1 ovarian = system: IGROV1 ovarian
K-562 leukemia = system: K-562 leukemia
KM12 colon = system: KM12 colon
LOX IMVI melanoma = system: LOX IMVI melanoma
M14 melanoma = system: M14 melanoma
MALME-3M melanoma = system: MALME-3M melanoma
MCF7 breast = system: MCF7 breast
MDA-MB-231 breast = system: MDA-MB-231 breast
MDA-MB-435 = system: MDA-MB-435
MOLT-4 leukemia = system: MOLT-4 leukemia
NCI-H226 lung = system: NCI-H226 lung
NCI-H23 lung = system: NCI-H23 lung
NCI-H460 lung = system: NCI-H460 lung
NCI-H522 lung = system: NCI-H522 lung
NCI/ADR-RES ovarian = system: NCI/ADR-RES ovarian
OVCAR-3 ovarian = system: OVCAR-3 ovarian
OVCAR-4 ovarian = system: OVCAR-4 ovarian
OVCAR-5 ovarian = system: OVCAR-5 ovarian
OVCAR-8 ovarian = system: OVCAR-8 ovarian
PC-3 prostate = system: PC-3 prostate
RPMI-8226 leukemia = system: RPMI-8226 leukemia
RXF 393 renal = system: RXF 393 renal
SF-268 CNS = system: SF-268 CNS
SF-295 CNS = system: SF-295 CNS
SF-539 CNS = system: SF-539 CNS
SK-MEL-2 melanoma = system: SK-MEL-2 melanoma
SK-MEL-28 melanoma = system: SK-MEL-28 melanoma
SK-MEL-5 melanoma = system: SK-MEL-5 melanoma
SK-OV-3 ovarian = system: SK-OV-3 ovarian
SN12C renal = system: SN12C renal
SNB-19 CNS = system: SNB-19 CNS
SNB-75 CNS = system: SNB-75 CNS
SR leukemia = system: SR leukemia
SW-620 colon = system: SW-620 colon
T-47D breast = system: T-47D breast
TK-10 renal = system: TK-10 renal
U251 CNS = system: U251 CNS
UACC-257 melanoma = system: UACC-257 melanoma
UACC-62 melanoma = system: UACC-62 melanoma
UO-31 renal = system: UO-31 renal

Compound `Oc1ccc2ccccc2c1N=Nc1ccccn1` has a GI50 (A498 renal) of 2.39 µM, a TGI (A498 renal) of 20 µM and a GI50 (A549 NSCLC) of 2.95 µM. For the same compound, the TGI (A549 NSCLC) was > 59.3 µM, the GI50 (ACHN renal) was 0.423 µM and the TGI (ACHN renal) was > 100 µM. The GI50 (BT-549 breast) was 3.44 µM, the TGI (BT-549 breast) was > 100 µM and the GI50 (CAKI-1 renal) was 0.138 µM. It also gave a TGI (CAKI-1 renal) of 0.906 µM, a GI50 (CCRF-CEM leukemia) of 0.312 µM and a TGI (CCRF-CEM leukemia) of 22.8 µM. The GI50 (COLO 205 colon) was 0.431 µM, the TGI (COLO 205 colon) was 21.4 µM and the GI50 (DU-145 prostate) was 1.83 µM. The TGI (DU-145 prostate) was > 100 µM, the GI50 (EKVX NSCLC) was 0.449 µM and the TGI (EKVX NSCLC) was 43.4 µM. For the same compound, the GI50 (HCC-2998 colon) was 2.35 µM, the TGI (HCC-2998 colon) was > 100 µM and the GI50 (HCT-116 colon) was 0.277 µM. For the same compound, the TGI (HCT-116 colon) was 2.77 µM, the GI50 (HCT-15 colon) was 0.497 µM and the TGI (HCT-15 colon) was > 100 µM. The GI50 (HL-60(TB) leukemia) was 0.469 µM, the TGI (HL-60(TB) leukemia) was 3.23 µM and the GI50 (HOP-62 NSCLC) was 1.41 µM. The TGI (HOP-62 NSCLC) was > 100 µM, the GI50 (HOP-92 NSCLC) was 3.02 µM and the TGI (HOP-92 NSCLC) was > 100 µM. The GI50 (HS 578T breast) was 7.52 µM, the TGI (HS 578T breast) was > 52.8 µM and the GI50 (HT29 colon) was 0.523 µM. For the same compound, the TGI (HT29 colon) was > 100 µM, the GI50 (IGROV1 ovarian) was 0.349 µM and the TGI (IGROV1 ovarian) was 8.14 µM. The GI50 (K-562 leukemia) was 0.6 µM, the TGI (K-562 leukemia) was > 100 µM and the GI50 (KM12 colon) was 0.919 µM. For the same compound, the TGI (KM12 colon) was > 100 µM, the GI50 (LOX IMVI melanoma) was 0.356 µM and the TGI (LOX IMVI melanoma) was 12.4 µM. It also gave a GI50 (M14 melanoma) of 1.41 µM, a TGI (M14 melanoma) of 7.1 µM and a GI50 (MALME-3M melanoma) of 2.07 µM. For the same compound, the TGI (MALME-3M melanoma) was 10.6 µM, the GI50 (MCF7 breast) was 0.527 µM and the TGI (MCF7 breast) was > 100 µM. The GI50 (MDA-MB-231 breast) was 0.468 µM, the TGI (MDA-MB-231 breast) was > 100 µM and the GI50 (MDA-MB-435) was 2.11 µM. For the same compound, the TGI (MDA-MB-435) was > 100 µM, the GI50 (MOLT-4 leukemia) was 0.296 µM and the TGI (MOLT-4 leukemia) was 12.5 µM. For the same compound, the GI50 (NCI-H226 lung) was 1.94 µM, the TGI (NCI-H226 lung) was > 87.9 µM and the GI50 (NCI-H23 lung) was 2.82 µM. For the same compound, the TGI (NCI-H23 lung) was > 100 µM, the GI50 (NCI-H460 lung) was 0.532 µM and the TGI (NCI-H460 lung) was 5.49 µM. The GI50 (NCI-H522 lung) was 1.97 µM, the TGI (NCI-H522 lung) was 43 µM and the GI50 (NCI/ADR-RES ovarian) was 0.575 µM. It also gave a TGI (NCI/ADR-RES ovarian) of 4.64 µM, a GI50 (OVCAR-3 ovarian) of 0.266 µM and a GI50 (OVCAR-4 ovarian) of 0.408 µM. For the same compound, the TGI (OVCAR-4 ovarian) was 3.87 µM, the GI50 (OVCAR-5 ovarian) was 4 µM and the TGI (OVCAR-5 ovarian) was > 100 µM. The GI50 (OVCAR-8 ovarian) was 0.447 µM, the TGI (OVCAR-8 ovarian) was > 27.4 µM and the GI50 (PC-3 prostate) was 1.76 µM. The TGI (PC-3 prostate) was > 100 µM, the GI50 (RPMI-8226 leukemia) was 1.98 µM and the TGI (RPMI-8226 leukemia) was > 100 µM. The GI50 (RXF 393 renal) was 3.44 µM, the TGI (RXF 393 renal) was > 100 µM and the GI50 (SF-268 CNS) was 0.554 µM. The TGI (SF-268 CNS) was > 100 µM, the GI50 (SF-295 CNS) was 0.8 µM and the TGI (SF-295 CNS) was 13.5 µM. For the same compound, the GI50 (SF-539 CNS) was 1.6 µM, the TGI (SF-539 CNS) was > 28.4 µM and the GI50 (SK-MEL-2 melanoma) was 3.08 µM. For the same compound, the TGI (SK-MEL-2 melanoma) was > 82.5 µM, the GI50 (SK-MEL-28 melanoma) was 2.8 µM and the TGI (SK-MEL-28 melanoma) was > 100 µM. The GI50 (SK-MEL-5 melanoma) was 2.75 µM, the TGI (SK-MEL-5 melanoma) was 15.6 µM and the GI50 (SK-OV-3 ovarian) was 1.14 µM. For the same compound, the TGI (SK-OV-3 ovarian) was > 100 µM, the GI50 (SN12C renal) was 1.46 µM and the TGI (SN12C renal) was > 100 µM. For the same compound, the GI50 (SNB-19 CNS) was 2.53 µM, the TGI (SNB-19 CNS) was > 100 µM and the GI50 (SNB-75 CNS) was 7.49 µM. The TGI (SNB-75 CNS) was > 86.7 µM, the GI50 (SR leukemia) was 0.356 µM and the TGI (SR leukemia) was 10.4 µM. The GI50 (SW-620 colon) was 0.652 µM, the TGI (SW-620 colon) was > 100 µM and the GI50 (T-47D breast) was 0.681 µM. The TGI (T-47D breast) was > 28.4 µM, the GI50 (TK-10 renal) was 1.53 µM and the TGI (TK-10 renal) was > 86.2 µM. For the same compound, the GI50 (U251 CNS) was 0.563 µM, the TGI (U251 CNS) was > 100 µM and the GI50 (UACC-257 melanoma) was 2.01 µM. The TGI (UACC-257 melanoma) was 8.02 µM, the GI50 (UACC-62 melanoma) was 1.35 µM and the TGI (UACC-62 melanoma) was 8.22 µM. For the same compound, the GI50 (UO-31 renal) was 0.306 µM and the TGI (UO-31 renal) was > 25.8 µM.
